How the values were obtained:
hM3 receptor (CHO cells) = target: T1, hM3 receptor (CHO cells) (Homo sapiens, UniProt P20309); experiment: Blockade of agonist-mediated calcium release via FLIPR; format: cell-based; details: CHO cells stably expressing the hM3 receptor, this or a similar assay
T1 construct: expressed in transfected cells
Source text: Muscarinic receptor subtypes (M1, M3 and M5 receptors), which couple to Gq proteins, activate the phospholipase C (PLC) pathway upon agonist binding to the receptor. As a result, activated PLC hydrolyzes phosphatyl inositol diphosphate (PIP2) to diacylglycerol (DAG) and […] (IP3), which in turn generates calcium release from intracellular stores, i.e., endoplasmic and sarcoplasmic reticulum. The FLIPR (Molecular Devices, Sunnyvale, Calif.) assay capitalizes on this increase in intracellular calcium by using a calcium sensitive dye (Fluo-4AM, Molecular Probes, Eugene, Oreg.) that fluoresces when free calcium binds. This fluorescence event was measured in real time by the FLIPR, which detected the change in fluorescence from a monolayer of cells cloned with human M1 and M3, and chimpanzee M5 receptors. Antagonist potency was determined by the ability of antagonists to inhibit agonist-mediated increases in intracellular calcium.
For FLIPR calcium stimulation assays, CHO cells stably expressing the hM1, hM3 and cM5 receptors were seeded into 96-well FLIPR plates the night before the assay was done. […]
To determine antagonist potency, the dose-dependent stimulation of intracellular Ca^2+ release for oxotremorine was first determined so that antagonist potency can later be measured against oxotremorine stimulation at an EC90 concentration. […]

[1] = test system: ACh-induced bronchoconstriction; experiment: Duration of bronchoprotection in guinea pig model of acetylcholine-induced bronchoconstriction; format: in vivo; details: inhalation, 1.5 hours post-dose, expected
Method: Groups of six male guinea pigs (Duncan-Hartley (HsdPoc:DH) Harlan, Madison, Wis.) weighing between 250 and 350 g are individually identified by cage cards. Throughout the study animals are allowed access to food and water ad libitum.
Test compounds are administered via inhalation over 10 minutes in a whole-body exposure dosing chamber (R&S Molds, San Carlos, Calif.). The dosing chambers are arranged so that an aerosol was simultaneously delivered to 6 individual chambers from a central manifold. Guinea pigs are exposed to an aerosol of a test compound or vehicle (WFI). […] This is measured gravimetrically by comparing pre-and post-nebulization weights of the filled nebulizer.
The bronchoprotective effects of test compounds administered via inhalation are evaluated using whole body plethysmography at 1.5, 24, 48 and 72 hours post-dose.
Forty-five minutes prior to the start of the pulmonary evaluation, each guinea pig is anesthetized with an intramuscular injection of ketamine (43.75 mg/kg), xylazine (3.50 mg/kg) and acepromazine (1.05 mg/kg). […] The depth of anesthesia is monitored and adjusted if the animal responds to pinching of its paw or if the respiration rate is greater than 100 breaths/minute. […]
Starting this program initiates the experimental protocol and data collection. […] By integrating this signal over time, a measurement of […] is calculated for each breath. […]

T1 sequence (P20309 whole entry): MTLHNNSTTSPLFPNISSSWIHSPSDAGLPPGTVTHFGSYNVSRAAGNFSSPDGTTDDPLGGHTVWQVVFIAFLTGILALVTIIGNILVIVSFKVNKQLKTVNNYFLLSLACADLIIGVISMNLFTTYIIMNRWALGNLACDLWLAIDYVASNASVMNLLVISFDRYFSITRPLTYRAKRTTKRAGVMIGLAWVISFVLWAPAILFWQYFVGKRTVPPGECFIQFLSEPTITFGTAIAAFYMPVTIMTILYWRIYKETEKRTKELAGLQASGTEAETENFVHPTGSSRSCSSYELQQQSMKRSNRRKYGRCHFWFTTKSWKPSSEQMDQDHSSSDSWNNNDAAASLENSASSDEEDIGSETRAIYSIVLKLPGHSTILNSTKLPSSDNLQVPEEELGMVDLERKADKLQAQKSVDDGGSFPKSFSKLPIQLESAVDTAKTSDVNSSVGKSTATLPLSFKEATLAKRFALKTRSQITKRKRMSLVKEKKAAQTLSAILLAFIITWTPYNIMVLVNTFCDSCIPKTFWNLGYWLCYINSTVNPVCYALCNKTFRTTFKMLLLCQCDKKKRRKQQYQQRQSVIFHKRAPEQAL

`O=C(CCN1CCC(OC(=O)Nc2ccccc2-c2ccccc2)CC1)NCCCCCNCc1ccc(O)cc1` [compound of formula I, biphenyl-2-ylcarbamic acid 1-{2-[5-(4-hydroxybenzylamino)pentylcarbamoyl]ethyl}piperidin-4-yl ester] was tested, and the Ki (hM3 receptor (CHO cells)) was under 0.01 µM and the “PD2(50) for ACh-induced bronchoconstriction” value [1] was “less than 200 μg/mL”.
